Assays:
[1] = system: non-template amplification; experiment: LAMP assay, suppression of non-template (background) amplification, real-time SYTO-9 fluorescence; type: biochemical; conditions: for Minimum effective concentration of individual additive (Compound B) required for suppression of non-template amplification / Minimum effective concentration of individual additive (Compound A) required for suppression of non-template amplification: single additive, 100% suppression; for effect on non-template amplification: lower temperature
Description: (§1) • 0.4-8 ng/μl DNA polymerase (Bst 2.0-Sso7d) in LAMP Buffer [20 mM Tris, 125 mM KCl, 10 mM (NH4)2SO4, 8 mM MgSO4, 1.4 mM dNTPs, 0.1% Tween-20® (Sigma-Aldrich, St. Louis, Mo.), pH 8.8 25° C.] • 1.6 μM Forward internal primer (FIP)/Back internal primer (BIP), 0.2 μM F3/B3, 0.4 μM LoopF/LoopB • 5 ng λ DNA or none (non-template control) per reaction (25 μl)
(§2) The additive solution was added to the amplification mixture to provide a final concentration in the range of 0-40% v/v where the stock solution of additive was solubilized in water. For example, concentrations of isobutyramide in the range of 0.005 M-1.5 M, 0.01 M-1.2 M, or 0.01 M-0.7 M and N-methylformamide in the range of 0.01-2 M, 0.02 M-1.5 M, or 0.02 M-1 M (combined for example, at ratios of 10:1, 8:1, 6:1, 4:1, 2:1, 1.8:1, 1.6:1, 1.4:1, 1.2:1, 1:1 of N-methylformamide:isobutyramide) were tested at various temperatures. Other examples included in the final reaction mixture 0.02 M-1.3 M propionamide, 0.2 M-2 M Urea, 0.1 M-3.8 M formamide, 0.05 M-2 M acetamide, 0.02 M-0.5 M valeramide, 0.01 M-2 M N,N-dimethylformamide, 0.01 M-2 M N,N-diethylformamide, 0.01 M-1.8 M N,N-dimethylbutyramide.
(§3) The extent of amplification of lambda DNA (unless otherwise specified) with a LAMP amplicon size of 100-200 bases was measured by real-time fluorescence using 2 μM SYTO-9® (Life Technologies, Carlsbad, Calif.) double strand DNA intercalating dye (Nagamine, et al., Molecular and Cellular Probes, 16:223-229 (2002)) using the following primers: […]
The reduction in background fluorescence from non-template amplification was quantitatively assessed. The total reaction time for LAMP is 90 minutes. In the absence of additives, a positive signal for an amplification product of a template could be detected at about 3 minutes-15 minutes at temperatures 55° C.-72° C. and for a non-template signal at 8 minutes-30 minutes at temperatures below about 71° C. When a mixture of additives was included in the amplification mixture, a positive signal for template amplification is still seen at 3 minutes-15 minutes but no signal is seen even after 85 minutes for non-template reactions. This is recorded however as the maximum time to illustrate the synergistic effect. […] In all cases, the effect of the ratio of components of the mixture at specific molar concentrations is greater than the effect of each component small molecule individually tested at the same molar concentration and temperature (exemplified by data in Table 2).
The synergistic effect of mixing a carboxamide and N-alkylcarboxamide was examined.

lambda DNA = experiment: LAMP assay, target (template) amplification, real-time SYTO-9 fluorescence; type: biochemical, lambda phage
Description: as §1, §2, §3
The reduction in background fluorescence from non-template amplification was quantitatively assessed. The total reaction time for LAMP is 90 minutes. In the absence of additives, a positive signal for an amplification product of a template could be detected at about 3 minutes-15 minutes at temperatures 55° C.-72° C. and for a non-template signal at 8 minutes-30 minutes at temperatures below about 71° C. […] This is recorded however as the maximum time to illustrate the synergistic effect. […]

[2] = isobutyramide increased above 0.4 M
[3] = N-methylformamide increased above 1.0 M

Compound: CCN(C=O)CC [DEF, N,N-diethylformamide]
- Minimum effective concentration of individual additive (Compound B) required for suppression of non-template amplification ([1]; 65 °C): 0.26 M

Compound: CCCC(=O)N(C)C [DMB, N,N-dimethylbutyramide]
- Minimum effective concentration of individual additive (Compound A) required for suppression of non-template amplification ([1]; 65 °C): 0.24 M

Compound: CN(C)C=O [DMF, N,N-dimethylformamide]
- Minimum effective concentration of individual additive (Compound B) required for suppression of non-template amplification ([1]; 65 °C): 0.77 M

Compound: NC=O [FA, formamide]
- Minimum effective concentration of individual additive (Compound A) required for suppression of non-template amplification ([1]; 65 °C): 1.8 M

Compound: CC(C)C(N)=O [IBA, isobutyramide]
- suppression of non-template amplification ([1]; 0.4 M isobutyramide alone, 60 °C): ~1%
- suppression of non-template amplification ([1]; 0.4 M isobutyramide alone, 65 °C): ~10%
- effect on non-template amplification [1, 2]: did not affect the non-template amplification at lower temperature
- Minimum effective concentration of individual additive (Compound A) required for suppression of non-template amplification ([1]; 65 °C): 0.41 M
- effect on target amplification (lambda DNA; [2]): further inhibit the target amplification

Compound: CNC=O [NMF, N-methylformamide]
- suppression of non-template amplification ([1]; 1.1 M N-methylformamide alone, 60 °C): ~1%
- suppression of non-template amplification ([1]; 1.1 M N-methylformamide alone, 65 °C): ~10%
- effect on non-template amplification [1, 3]: did not affect the non-template amplification at lower temperature
- effect of increasing amounts of single additive on non-template amplification (time to threshold) ([1]; increasing amounts of 3.2 M N-methylformamide, FIG. 6A): no beneficial effect observed
- Minimum effective concentration of individual additive (Compound B) required for suppression of non-template amplification ([1]; 65 °C): 1.1 M
- effect on target amplification (lambda DNA; 1.1 M N-methylformamide, single additive, FIG. 2B): inhibited target amplification above 68 °C
- effect on target amplification (lambda DNA; [3]): further inhibit the target amplification

Compound: CCC(N)=O [PIA, propionamide]
- effect of increasing amounts of single additive on non-template amplification (time to threshold) ([1]; increasing amounts of 1.7 M propionamide, FIG. 6B): no beneficial effect observed
- Minimum effective concentration of individual additive (Compound A) required for suppression of non-template amplification ([1]; 65 °C): 0.80 M

Compound: CCCCC(N)=O [VA, valeramide]
- Minimum effective concentration of individual additive (Compound A) required for suppression of non-template amplification ([1]; 65 °C): 0.20 M
